Values of other authors, collected in patent US20030004177A1, “Abuse-resistant opioid dosage form” (Endo Pharmaceuticals, Inc., priority 2001, published 2003).
Read-outs that look alike come from different tables or passages of the source.

Experiments:
opioid effect = settings: injection or intranasal administration

C=CCN1CC[C@]23c4c5ccc(O)c4O[C@H]2C(=O)CC[C@@]3(O)[C@H]1C5 [naloxone]
amount needed to antagonize the opioid effect, to induce abstinence in dependent individuals, and to prevent abuse (opioid effect): 0.2 to 0.4 mg
bioavailability (administered orally): very low
bioavailability (administered parenterally): high
